Assay results from US9133217B2 (Salix Pharmaceuticals, Ltd, priority 2011, dated 2015).
Entries after “also recorded” stand apart in the source; their conditions may differ. Where two headings read alike, the source gives them in different places.

Columns and labels:
Format in all cases: physicochemical
[1] = Moisture sorption/desorption (dynamic vapor sorption, DVS); conditions: for weight gain (adsorption) from 5 to 95% RH / weight gain from 5 to 95% RH: sorption 5 to 95% RH; for hygroscopicity (in words): from moisture sorption/desorption; for Post-DVS XRPD (solid form after moisture sorption): specimen after DVS cycle 5-95-5% RH
Protocol: Automated vapor sorption (VS) data were collected on a VTI SGA-100 Vapor Sorption Analyzer. NaCl and PVP were used as calibration standards. Samples were not dried prior to analysis. Sorption and desorption data were collected over a range from 5 to 95% RH at 10% RH increments under a nitrogen purge. The equilibrium criterion used for analysis was less than 0.0100% weight change in 5 minutes with a maximum equilibration time of 3 hours. Data were not corrected for the initial moisture content of the samples.
Moisture sorption/desorption data were collected on a VTI SGA-100 Vapor Sorption Analyzer. Sorption and desorption data were collected over a range of 5% to 95% relative humidity (RH) at 10% RH intervals under a nitrogen purge. Samples were not dried prior to analysis. Equilibrium criteria used for analysis were less than 0.0100% weight change in 5 minutes, with a maximum equilibration time of 3 hours if the weight criterion was not met. Data were not corrected for the initial moisture content of the samples. NaCl and PVP were used as calibration standards.

[2] = Rifaximin drying experiments, resulting solid form by XRPD
Protocol: (§1) X-ray powder diffraction (XRPD) analyses were performed using an Inel XRG-3000 diffractometer equipped with a CPS (Curved Position Sensitive) detector with a […] of 120°. Real time data were collected using Cu—Kα radiation. The tube voltage and amperage were set to 40 kV and 30 mA, respectively. The monochromator slit was set at 1-5 mm by 160 μm. […] Samples were prepared for analysis by packing them into thin-walled glass capillaries. Each capillary was mounted onto a goniometer head that is motorized to permit spinning of the capillary during data acquisition. The samples were analyzed for 300 seconds. Instrument calibration was performed using a silicon reference standard.

[3] = Stressing under various relative humidities / temperature and vacuum, resulting solid form by XRPD
Protocol: The jar was sealed and stored at either ambient temperature or in an oven at elevated temperature.
as §1
Samples were also analyzed using a PANalytical X'Pert Pro diffractometer. The specimen was analyzed using Cu radiation produced using an Optix long fine-focus source. An elliptically graded multilayer mirror was used to focus the Cu K α X-rays of the source through the specimen and onto the detector. The specimen was sandwiched between 3-micron thick films, analyzed in transmission geometry, and rotated to optimize orientation statistics. A beam-stop and a helium purge were used to minimize the background generated by air scattering. Soller slits were used for the incident and diffracted beams to minimize axial divergence. Diffraction patterns were collected using a scanning position-sensitive detector (X'Celerator) located 240 mm from the specimen […] a silicon specimen (NIST standard reference material 640c) was analyzed to verify the position of the silicon 111 peak.

For `CO[C@H]1/C=C/O[C@@]2(C)Oc3c(C)c(O)c4c(O)c(c5c(nc6cc(C)ccn65)c4c3C2=O)NC(=O)/C(C)=C\C=C\[C@H](C)[C@H](O)[C@@H](C)[C@@H](O)[C@@H](C)[C@H](OC(C)=O)[C@@H]1C` [Form Pi, Rifaximin], the “weight lost from 95 to 5% RH” value ([1]; DVS, desorption 95 to 5% RH) was 11.3 wt % lost from 95 to 5% RH, the “weight loss from 95 to 5% RH” value ([1]; DVS, desorption 95 to 5% RH, listed as Rifaximin Form Pi) was 11.3% and the “initial weight loss at 5% RH upon equilibration” value ([1]; DVS, equilibration at 5% RH) was 1.3 wt %. For the same molecule, the “wt % change on equilibration at 5% RH” value ([1]; DVS, equilibration at 5% RH, signed change) was −1.3 wt % change on equilibration at 5% RH, the “weight gain (adsorption) from 5 to 95% RH” value ([1]; DVS, listed as Rifaximin Form Pi) was 10.5 wt % and the “weight gain (adsorption) from 5 to 95% RH” value ([1]; DVS, listed as Rifaximin Pi) was 10.5 wt % gain from 5 to 95% RH. For the same molecule, the “hygroscopicity (in words)” value ([1]; listed as Rifaximin Form Pi) was “reversibly hygroscopic”, the “Post-DVS XRPD (solid form after moisture sorption)” value (“Post-DVS XRPD” for short) ([1]; listed as Rifaximin Form Pi) was “Form Pi” and the “Post-DVS XRPD” value ([1]; listed as Rifaximin Pi) was “Pi”.

In the case of `CO[C@H]1/C=C/O[C@@]2(C)Oc3c(C)c(O)c4c(O)c(c5c(nc6cc(C)ccn65)c4c3C2=O)NC(=O)/C(C)=C\C=C\[C@H](C)[C@H](O)[C@@H](C)[C@@H](O)[C@@H](C)[C@H](OC(C)=O)[C@@H]1C` [Form Xi, Rifaximin], the “weight loss from 95 to 5% RH” value ([1]; DVS, desorption 95 to 5% RH, listed as rifaximin Form Xi) is reported as 10.5%, the “initial weight loss upon equilibration at 5% RH” value ([1]; DVS, equilibration at 5% RH, listed as rifaximin Form Xi) is reported as 7.2% and the “weight gain from 5 to 95% RH” value ([1]; DVS, listed as rifaximin Form Xi) is reported as 7.9%. For the same molecule, the “Post-DVS XRPD” value ([1]; listed as rifaximin Form Xi) was “became disordered”.

In the case of `CO[C@H]1/C=C/O[C@@]2(C)Oc3c(C)c(O)c4c(O)c(c5c(nc6cc(C)ccn65)c4c3C2=O)NC(=O)/C(C)=C\C=C\[C@H](C)[C@H](O)[C@@H](C)[C@@H](O)[C@@H](C)[C@H](OC(C)=O)[C@@H]1C` [Form Eta, Rifaximin], the “XRPD Form after drying” value ([2]; vac oven, 40° C., 1 day, listed as η) is reported as “η”.

With `CO[C@H]1/C=C/O[C@@]2(C)Oc3c(C)c(O)c4c(O)c(c5c(nc6cc(C)ccn65)c4c3C2=O)NC(=O)/C(C)=C\C=C\[C@H](C)[C@H](O)[C@@H](C)[C@@H](O)[C@@H](C)[C@H](OC(C)=O)[C@@H]1C` [Form Gamma, Rifaximin, reference compound] the “weight loss from 95 to 5% RH” value ([1]; DVS, desorption 95 to 5% RH, listed as Rifaximin Form Gamma) was 11.7%, the “initial weight loss upon equilibration at 5% RH” value ([1]; DVS, equilibration at 5% RH, listed as Rifaximin Form Gamma) was 2.4% and the “weight gain from 5 to 95% RH” value ([1]; DVS, listed as Rifaximin Form Gamma) was 10.8%. For the same molecule, the “hygroscopicity (in words)” value ([1]; listed as Rifaximin Form Gamma) was “hygroscopic” and the “XRPD Form after drying” value ([2]; vac oven / under vacuum, ambient, 1 day, listed as Form γ) was “remained unchanged”.

With `CO[C@H]1/C=C/O[C@@]2(C)Oc3c(C)c(O)c4c(O)c(c5c(nc6cc(C)ccn65)c4c3C2=O)NC(=O)/C(C)=C\C=C\[C@H](C)[C@H](O)[C@@H](C)[C@@H](O)[C@@H](C)[C@H](OC(C)=O)[C@@H]1C` [Form Theta, Rifaximin, reference compound] the “form after exposure to humidity (XRPD)” value ([3]; 75% RH (40° C.), 6 hrs) was “μ + η”, the “form after exposure to humidity (XRPD)” value ([3]; 75% RH (RT), 6 hrs) was “convert at least partially to Form μ” and the “form after exposure to humidity (XRPD)” value ([3]; 75% RH (RT), 6 hrs, listed as Rifaximin Form Theta) was “convert to Form μ”. The “form after exposure to humidity (XRPD)” value ([3]; 75% RH (RT), 6 hrs, listed as θ) was “μ + ι”.

With `CO[C@H]1/C=C/O[C@@]2(C)Oc3c(C)c(O)c4c(O)c(c5c(nc6cc(C)ccn65)c4c3C2=O)NC(=O)/C(C)=C\C=C\[C@H](C)[C@H](O)[C@@H](C)[C@@H](O)[C@@H](C)[C@H](OC(C)=O)[C@@H]1C` [α dry, Rifaximin, reference compound] the “XRPD Form after stressing” value ([3]; 58% RH, 2 days, room temperature) was “β”, the “XRPD Form after stressing” value ([3]; 75% RH, 2 days, room temperature) was “β” and the “XRPD Form after stressing” value ([3]; 94% RH, 2 days, room temperature) was “β”.

For `CO[C@H]1/C=C/O[C@@]2(C)Oc3c(C)c(O)c4c(O)c(c5c(nc6cc(C)ccn65)c4c3C2=O)NC(=O)/C(C)=C\C=C\[C@H](C)[C@H](O)[C@@H](C)[C@@H](O)[C@@H](C)[C@H](OC(C)=O)[C@@H]1C` [Form Zeta, Rifaximin], the “XRPD Form after stressing” value ([3]; 43% RH, 3 days, room temperature) was “conversion to Form γ”, the “XRPD Form after stressing” value ([3]; 43% RH, 3 days, room temperature, listed as Form ζ) was “conversion to Form γ” and the “XRPD Form after stressing” value ([3]; 43% RH, 3 days, room temperature, listed as ζ) was “γ”. The “form after exposure to humidity (XRPD)” value ([3]; 51% RH (RT), ~20 min) was “converts to Form Mu”, the “form after exposure to humidity (XRPD)” value ([3]; 51% RH (RT), ~20 min, listed as ζ) was “μ” and the “XRPD Form after stressing” value ([3]; 58% RH, 3 days, room temperature, listed as ζ) was “ζ”. The “XRPD Form after stressing” value ([3]; 75% RH, 3 days, room temperature, listed as ζ) was “ζ”, the “XRPD Form after stressing” value ([3]; 94% RH, 3 days, room temperature, listed as Form ζ) was “Form γ+γ−1” and the “XRPD Form after stressing” value ([3]; 94% RH, 3 days, room temperature, listed as ζ) was “β + ζ”. For the same molecule, the “XRPD Form after stressing” value ([3]; stability chamber 75% RH @40° C., 1 day) was “ζ + Y”, the “XRPD Form after drying” value ([2]; air dry) was “γ” and the “XRPD Form after drying” value ([2]; open vial in hood) was “γ”. The “XRPD Form after storage” value ([2]; stored in refrigerator 3 weeks) was “ζ”, the “XRPD Form after drying” value ([2]; vac dry) was “γ + η” and the “XRPD Form after drying” value ([2]; vac oven / under vacuum, ambient, 1 day) was “Form η”. The “XRPD Form after drying” value ([2]; vac oven / under vacuum, ambient, 1 day, listed as ζ) was “η”, the “XRPD Form after drying” value ([2]; vac oven, 40° C., 1 day) was “remained unchanged” and the “XRPD Form after drying” value ([2]; vac oven, 45° C., 2 days) was “η”.

For `CO[C@H]1/C=C/O[C@@]2(C)Oc3c(C)c(O)c4c(O)c(c5c(nc6cc(C)ccn65)c4c3C2=O)NC(=O)/C(C)=C\C=C\[C@H](C)[C@H](O)[C@@H](C)[C@@H](O)[C@@H](C)[C@H](OC(C)=O)[C@@H]1C` [Form Omicron, Rifaximin], the “wt % change on equilibration at 5% RH” value [1] was −15.0 wt % change on equilibration at 5% RH, the “initial weight loss at 5% RH upon equilibration” value ([1]; DVS, equilibration at 5% RH, listed as Rifaximin Form Omicron) was ~15 wt % and the “Post-DVS XRPD” value ([1]; listed as Rifaximin Form Omicron) was “Form Iota with a significant amount of disorder”.

With `CO[C@H]1/C=C/O[C@@]2(C)Oc3c(C)c(O)c4c(O)c(c5c(nc6cc(C)ccn65)c4c3C2=O)NC(=O)/C(C)=C\C=C\[C@H](C)[C@H](O)[C@@H](C)[C@@H](O)[C@@H](C)[C@H](OC(C)=O)[C@@H]1C` [α, Rifaximin, reference compound] the “XRPD Form after stressing” value ([3]; P205, 4 days, room temperature) was “α dry”.

With `CO[C@H]1/C=C/O[C@@]2(C)Oc3c(C)c(O)c4c(O)c(c5c(nc6cc(C)ccn65)c4c3C2=O)NC(=O)/C(C)=C\C=C\[C@H](C)[C@H](O)[C@@H](C)[C@@H](O)[C@@H](C)[C@H](OC(C)=O)[C@@H]1C` [Form Mu, Rifaximin] the “weight loss from 95 to 5% RH” value ([1]; DVS, desorption 95 to 5% RH, listed as rifaximin Form μ) was 9.3%, the “initial weight loss upon equilibration at 5% RH” value ([1]; DVS, equilibration at 5% RH, listed as rifaximin Form μ) was 11.0% and the “weight gain from 5 to 95% RH” value ([1]; DVS, listed as rifaximin Form μ) was 9.5%. The “% wt lost from 95%-5% RH” value ([1]; moisture balance, desorption) was 9.3 % wt lost from 95%-5% RH, the “% wt change upon equilibration at 5% RH” value ([1]; moisture balance, equilibration at 5% RH, signed change) was −11.0 % wt change upon equilibration at 5% RH and the “% wt gain from 5%-95% RH” value ([1]; moisture balance, sorption) was 9.5 % wt gain from 5%-95% RH. The “Post-DVS XRPD” value ([1]; listed as Rifaximin Form Mu) was “Form γ”, the “Post-DVS XRPD” value ([1]; listed as rifaximin Form μ) was “converted to Form Gamma” and the “XRPD result after stress” value ([3]; 59-62° C./Vacuum, ~24 hours) was “γ”. For the same molecule, the “XRPD result after stress” value ([3]; 60° C./Vacuum, ~24 hours, listed as Form μ) was “irreversibly desolvates to Form Gamma; also recorded: irreversibly desolvates to Form γ”, the “XRPD result after stress” value ([3]; 60° C./Vacuum, ~24 hours, listed as Rifaximin Form μ) was “γ” and the “XRPD result after stress” value ([3]; 97% RH (RT), 16 days, listed as Form μ) was “converted to Form Beta”. The “XRPD result after stress” value ([3]; 97% RH (RT), 16 days, listed as Rifaximin Form μ) was “μ + β”.
